Data published in article PMC4390081 (Biochemistry, 2013).

Target: chlorite dismutase (DaCld) (Dechloromonas aromatica (nom. nud.), UniProt Q47CX0)
Experiment: steady-state peroxidase assay
Assay type: biochemical

Sequence of chlorite dismutase (DaCld) (Q47CX0 35-282): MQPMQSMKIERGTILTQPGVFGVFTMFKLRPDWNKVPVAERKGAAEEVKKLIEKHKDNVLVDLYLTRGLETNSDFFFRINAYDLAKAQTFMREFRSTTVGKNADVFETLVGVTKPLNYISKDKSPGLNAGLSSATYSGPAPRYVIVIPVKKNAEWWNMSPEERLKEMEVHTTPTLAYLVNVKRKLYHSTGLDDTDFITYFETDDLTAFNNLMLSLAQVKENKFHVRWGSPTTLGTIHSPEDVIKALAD

COc1ccccc1O [guaiacol, 2-methoxyphenol]
kcat (S^-1): 2.8 s⁻¹
